According to ChEMBL document CHEMBL4130416, “Glycine-replaced derivatives of [Pro3,DLeu9]TL, a temporin L analogue: Evaluation of antimicrobial, cytotoxic and hemolytic activities” (Eur J Med Chem, 2017):
≈ marks a conversion by molar mass, not a printed value. Calls of active or inactive are those of the source. The calls are words filed in the database; no cut-off is given here. Where a SMILES comes first, the peptide text is derived from it. [ ]: non-standard residue; d: D form.

Assays:
Candida albicans [1] = test: Antimicrobial activity against Candida albicans clinical isolate 2 after 18 to 20 hrs by microbroth dilution method; assay type: functional
[2] = Hemolytic activity against human erythrocytes at 25 uM after 40 mins relative to control; assay type: ADME, cell-based, Erythrocyte; settings: read-out: Activity
HaCaT [3] = test: Cytotoxicity against human HaCaT cells at 12.5 uM after 24 hrs by MTT assay relative to control; assay type: cell-based
[4] = Hemolytic activity against human erythrocytes at 3.125 uM after 40 mins relative to control; assay type: ADME, cell-based, Erythrocyte; settings: read-out: Activity
[5] = Hemolytic activity against human erythrocytes at 6.25 uM after 40 mins relative to control; assay type: ADME, cell-based, Erythrocyte; settings: read-out: Activity
HaCaT [6] = test: Cytotoxicity against human HaCaT cells at 50 uM after 24 hrs by MTT assay relative to control; assay type: cell-based
Pseudomonas syringae = test: Antimicrobial activity against Pseudomonas syringae pv tabaci NCPPB 1918 after 18 to 20 hrs by microbroth dilution method; assay type: functional, Pseudomonas amygdali pv. tabaci
Escherichia coli [7] = test: Antimicrobial activity against multisensitive Escherichia coli clinical isolate 2 after 18 to 20 hrs by microbroth dilution method; assay type: functional
Pseudomonas aeruginosa [8] = test: Antimicrobial activity against Pseudomonas aeruginosa ATCC 27853 after 18 to 20 hrs by microbroth dilution method; assay type: functional
Pseudomonas aeruginosa [9] = test: Antimicrobial activity against multisensitive Pseudomonas aeruginosa after 18 to 20 hrs by microbroth dilution method; assay type: functional
Staphylococcus aureus [10] = test: Antimicrobial activity against methicillin resistant Staphylococcus aureus clinical isolate 1 after 18 to 20 hrs by microbroth dilution method; assay type: functional
[11] = test system: Staphylococcus epidermidis; test: Antimicrobial activity against Staphylococcus epidermidis ATCC 12228 after 18 to 20 hrs by microbroth dilution method; assay type: functional
Staphylococcus aureus [12] = test: Antimicrobial activity against methicillin resistant Staphylococcus aureus clinical isolate 2 after 18 to 20 hrs by microbroth dilution method; assay type: functional
HaCaT [13] = test: Cytotoxicity against human HaCaT cells at 25 uM after 24 hrs by MTT assay relative to control; assay type: cell-based
[14] = Metabolic stability in 90% human serum assessed as parent compound remaining at 0.2 mM after 45 mins by RP-UHPLC analysis; assay type: ADME, cell-free; settings: read-out: Stability
Candida albicans [15] = test: Antimicrobial activity against Candida albicans ATCC 10231 after 18 to 20 hrs by microbroth dilution method; assay type: functional
[16] = Hemolytic activity against human erythrocytes at 50 uM after 40 mins relative to control; assay type: ADME, cell-based, Erythrocyte; settings: read-out: Activity
[17] = Hemolytic activity against human erythrocytes at 12.5 uM after 40 mins relative to control; assay type: ADME, cell-based, Erythrocyte; settings: read-out: Activity
Staphylococcus aureus [18] = test: Antimicrobial activity against macrolid resistant Staphylococcus aureus after 18 to 20 hrs by microbroth dilution method; assay type: functional
Staphylococcus aureus [19] = test: Antimicrobial activity against beta-lactamase resistant Staphylococcus aureus after 18 to 20 hrs by microbroth dilution method; assay type: functional
Candida albicans [20] = test: Antimicrobial activity against Candida albicans clinical isolate 1 after 18 to 20 hrs by microbroth dilution method; assay type: functional
Klebsiella pneumoniae = test: Antimicrobial activity against multisensitive Klebsiella pneumoniae after 18 to 20 hrs by microbroth dilution method; assay type: functional
Priestia megaterium = test: Antimicrobial activity against Bacillus megaterium Bm11 after 18 to 20 hrs by microbroth dilution method; assay type: functional
[21] = Metabolic stability in 90% human serum assessed as parent compound remaining at […] after 120 mins by RP-UHPLC analysis; assay type: ADME, cell-free; settings: read-out: Stability
HaCaT [22] = test: Cytotoxicity against human HaCaT cells at 1.56 to 6.25 uM after 24 hrs by MTT assay; assay type: cell-based
Escherichia coli [23] = test: Antimicrobial activity against Escherichia coli D21 after 18 to 20 hrs by microbroth dilution method; assay type: functional
Staphylococcus aureus [24] = test: Antimicrobial activity against multisensitive Staphylococcus aureus after 18 to 20 hrs by microbroth dilution method; assay type: functional
Escherichia coli [25] = test: Antimicrobial activity against multisensitive Escherichia coli clinical isolate 1 after 18 to 20 hrs by microbroth dilution method; assay type: functional
Staphylococcus aureus [26] = test: Antimicrobial activity against Staphylococcus aureus Cowan I after 18 to 20 hrs by microbroth dilution method; assay type: functional
Pichia kudriavzevii = test: Antimicrobial activity against Candida krusei ATCC 6258 after 18 to 20 hrs by microbroth dilution method; assay type: functional
Acinetobacter baumannii [27] = test: Antimicrobial activity against Acinetobacter baumannii ATCC 19606 after 18 to 20 hrs by microbroth dilution method; assay type: functional; settings: ATCC 19606 = CIP 70.34 = JCM 6841
[28] = test system: Staphylococcus epidermidis; test: Antimicrobial activity against Staphylococcus epidermidis ATCC 12228 assessed as membrane-perturbation measured every minute for 120 mins by SYTOX green fluorescence dye influx assay; assay type: functional, organism-based
Acinetobacter baumannii [29] = test: Antimicrobial activity against Acinetobacter baumannii ATCC 19606 assessed as induction of membrane-perturbation at MIC measured every minute for 120 mins by SYTOX green fluorescence dye influx assay; assay type: functional, organism-based; settings: ATCC 19606 = CIP 70.34 = JCM 6841
Candida albicans [30] = test: Antimicrobial activity against Candida albicans ATCC 10231 assessed as induction of membrane-perturbation at MIC measured every minute for 10 mins by SYTOX green fluorescence dye influx assay; assay type: functional, organism-based
HaCaT [31] = test: Cytotoxicity against human HaCaT cells at 6.25 uM after 24 hrs by MTT assay relative to control; assay type: cell-based

| Compound | MIC (Candida albicans [1]) | hemolysis at 40 min, 25 µM [2] | Activity (HaCaT [3]) | hemolysis at 40 min, 3.125 µM [4] | hemolysis at 40 min, 6.25 µM [5] | Activity (HaCaT [6]) | MIC (Pseudomonas syringae) | MIC (Escherichia coli [7]) | MIC (Pseudomonas aeruginosa [8]) | MIC (Pseudomonas aeruginosa [9]) | MIC (Staphylococcus aureus [10]) | MIC [11] | Activity (HaCaT [13]) | MIC (Candida albicans [15]) | MIC (Priestia megaterium) | Activity (HaCaT [22]) | MIC (Escherichia coli [23]) | MIC (Staphylococcus aureus [26]) | MIC (Pichia kudriavzevii) | MIC (Acinetobacter baumannii [27]) | also measured |
| --- | --- | --- | --- | --- | --- | --- | --- | --- | --- | --- | --- | --- | --- | --- | --- | --- | --- | --- | --- | --- | --- |
| CC[C@H](C)[C@H](NC(=O)[C@H](CCCNC(=N)N)NC(=O)CNC(=O)[C@@H](CC(C)C)NC(=O)[C@H](Cc1ccccc1)NC(=O)[C@H](CCCCN)NC(=O)[C@H](CO)NC(=O)[C@H](Cc1ccccc1)NC(=O)[C@H](Cc1c[nH]c2ccccc12)NC(=O)[C@@H]1CCCN1C(=O)[C@@H](NC(=O)[C@@H](N)Cc1ccccc1)C(C)C)C(=O)N[C@@H](CC(C)C)C(N)=O (H-FVPWFSKF[dL]GRIL-NH2) | 25 µM (≈ 40.2 µg/mL) | 7% | 20.63% | 1% | 3% | 91.58% | 12.5 µM (≈ 20.1 µg/mL) | 50 µM (≈ 80.4 µg/mL) | 50 µM (≈ 80.4 µg/mL) | > 50 µM | 12.5 µM (≈ 20.1 µg/mL) | 6.25 µM (≈ 10.1 µg/mL) | 57.52% | 3.12 µM (≈ 5.03 µg/mL) | 3.12 µM (≈ 5.03 µg/mL) | Non-Toxic | 12.5 µM (≈ 20.1 µg/mL) | 12.5 µM (≈ 20.1 µg/mL) | 3.12 µM (≈ 5.03 µg/mL) | 12.5 µM (≈ 20.1 µg/mL) | MIC (Staphylococcus aureus [12]): 12.5 µM (≈ 20.1 µg/mL); remaining at 0.75 h, 200 µM [14]: 45%; hemolysis at 40 min, 50 µM [16]: 21%; hemolysis at 40 min, 12.5 µM [17]: 6%; MIC (Staphylococcus aureus [18]): 12.5 µM (≈ 20.1 µg/mL); MIC (Staphylococcus aureus [19]): 12.5 µM (≈ 20.1 µg/mL); MIC (Candida albicans [20]): 25 µM (≈ 40.2 µg/mL); MIC (Klebsiella pneumoniae): > 50 µM; remaining at 2 h [21]: 20%; MIC (Staphylococcus aureus [24]): 12.5 µM (≈ 20.1 µg/mL); MIC (Escherichia coli [25]): 50 µM (≈ 80.4 µg/mL) |
| CC[C@H](C)[C@H](NC(=O)[C@H](CCCNC(=N)N)NC(=O)[C@H](Cc1c[nH]c2ccccc12)NC(=O)[C@@H](CC(C)C)NC(=O)[C@H](Cc1ccccc1)NC(=O)[C@H](CCCCN)NC(=O)[C@H](CO)NC(=O)[C@H](Cc1ccccc1)NC(=O)[C@H](Cc1c[nH]c2ccccc12)NC(=O)[C@@H]1CCCN1C(=O)[C@@H](NC(=O)[C@@H](N)Cc1ccccc1)C(C)C)C(=O)N[C@@H](CC(C)C)C(N)=O (H-FVPWFSKF[dL]WRIL-NH2) | 25 µM (≈ 43.5 µg/mL) | 20% | 0% | 2% | 4% | 89.3% | 1.56 µM (≈ 2.71 µg/mL) | 50 µM (≈ 86.9 µg/mL) | > 50 µM | > 50 µM | 6.25 µM (≈ 10.9 µg/mL) | 1.56 µM (≈ 2.71 µg/mL) | 32.1% | 3.12 µM (≈ 5.43 µg/mL) | 1.56 µM (≈ 2.71 µg/mL) | Non-Toxic | 25 µM (≈ 43.5 µg/mL) | 3.12 µM (≈ 5.43 µg/mL) | 3.12 µM (≈ 5.43 µg/mL) | 3.12 µM (≈ 5.43 µg/mL) | Activity [28]: Active; Activity (Acinetobacter baumannii [29]): Active; MIC (Staphylococcus aureus [12]): 6.25 µM (≈ 10.9 µg/mL); remaining at 0.75 h, 200 µM [14]: 80%; Activity (Candida albicans [30]): Active; hemolysis at 40 min, 50 µM [16]: 37%; hemolysis at 40 min, 12.5 µM [17]: 7%; MIC (Staphylococcus aureus [18]): 6.25 µM (≈ 10.9 µg/mL); MIC (Staphylococcus aureus [19]): 6.25 µM (≈ 10.9 µg/mL); MIC (Candida albicans [20]): 25 µM (≈ 43.5 µg/mL); MIC (Klebsiella pneumoniae): > 50 µM; remaining at 2 h [21]: 50%; MIC (Staphylococcus aureus [24]): 6.25 µM (≈ 10.9 µg/mL); MIC (Escherichia coli [25]): 50 µM (≈ 86.9 µg/mL) |
| CC[C@H](C)[C@H](NC(=O)[C@H](CCCNC(=N)N)NC(=O)[C@@H](Cc1c[nH]c2ccccc12)NC(=O)[C@@H](CC(C)C)NC(=O)[C@H](Cc1ccccc1)NC(=O)[C@H](CCCCN)NC(=O)[C@H](CO)NC(=O)[C@H](Cc1ccccc1)NC(=O)[C@H](Cc1c[nH]c2ccccc12)NC(=O)[C@@H]1CCCN1C(=O)[C@@H](NC(=O)[C@@H](N)Cc1ccccc1)C(C)C)C(=O)N[C@@H](CC(C)C)C(N)=O (H-FVPWFSKF[dL][dW]RIL-NH2) |  |  | 19.21% |  |  | 96.77% | 3.12 µM (≈ 5.43 µg/mL) |  | 50 µM (≈ 86.9 µg/mL) |  |  | 1.56 µM (≈ 2.71 µg/mL) | 35.34% | 3.12 µM (≈ 5.43 µg/mL) | 3.12 µM (≈ 5.43 µg/mL) |  | 25 µM (≈ 43.5 µg/mL) | 3.12 µM (≈ 5.43 µg/mL) | 3.12 µM (≈ 5.43 µg/mL) | 3.12 µM (≈ 5.43 µg/mL) | Activity (HaCaT [31]): 15% |
| CCCC[C@H](NC(=O)[C@@H](CC(C)C)NC(=O)[C@H](Cc1ccccc1)NC(=O)[C@H](CCCCN)NC(=O)[C@H](CO)NC(=O)[C@H](Cc1ccccc1)NC(=O)[C@H](Cc1c[nH]c2ccccc12)NC(=O)[C@@H]1CCCN1C(=O)[C@@H](NC(=O)[C@@H](N)Cc1ccccc1)C(C)C)C(=O)N[C@@H](CCCNC(=N)N)C(=O)NC(C(=O)N[C@@H](CC(C)C)C(N)=O)[C@@H](C)CC (single isomer, unassigned) |  |  | 12.25% |  |  | 99.76% | 6.25 µM (≈ 10.4 µg/mL) |  | 50 µM (≈ 83.3 µg/mL) |  |  | 3.12 µM (≈ 5.2 µg/mL) | 65.86% | 3.12 µM (≈ 5.2 µg/mL) | 3.12 µM (≈ 5.2 µg/mL) | Non-Toxic | 25 µM (≈ 41.6 µg/mL) | 3.12 µM (≈ 5.2 µg/mL) | 3.12 µM (≈ 5.2 µg/mL) | 6.25 µM (≈ 10.4 µg/mL) |  |
